Structures can show the parent of a compound that is named as a salt.

T1 sequence (P50406 whole entry): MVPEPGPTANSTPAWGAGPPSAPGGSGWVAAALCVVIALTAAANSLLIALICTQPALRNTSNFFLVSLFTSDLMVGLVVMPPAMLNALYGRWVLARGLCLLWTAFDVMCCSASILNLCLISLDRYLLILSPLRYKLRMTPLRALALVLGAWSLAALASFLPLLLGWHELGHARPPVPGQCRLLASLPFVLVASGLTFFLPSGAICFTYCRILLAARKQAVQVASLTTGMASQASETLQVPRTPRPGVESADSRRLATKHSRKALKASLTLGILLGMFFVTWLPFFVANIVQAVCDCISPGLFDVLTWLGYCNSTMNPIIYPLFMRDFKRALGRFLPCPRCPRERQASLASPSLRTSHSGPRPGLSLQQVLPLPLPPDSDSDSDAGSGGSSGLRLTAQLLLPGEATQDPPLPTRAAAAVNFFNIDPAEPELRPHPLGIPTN

One data set has as its target T1, recombinant human 5-HT6 receptor (Homo sapiens, UniProt P50406).
T1 construct: expressed in transfected cells; membranes
The data set is described as follows: Radioligand binding, [3H]LSD competition in membranes of HEK293 cells expressing 5-HT6. To be noted: [3H]LSD displacement, pH 7.4, 37° C., read-out: pKi for 5-HT6 (converted). On the procedure:
The binding activity of compounds of this invention in vitro was determined as follows. Duplicate determinations of 5-HT6 ligand affinity were made by competing for binding of [^3H]LSD in cell membranes derived from HEK293 cells stably expressing recombinant human 5-HT6 receptor. Duplicate determinations of 5-HT2A ligand affinity were made by competing for binding of [^3H]Ketanserin (3-(2-(4-(4-fluorobenzoyl)piperidinol)ethyl)-2,4(1H,3H)-quinazolinedione) in cell membranes derived from CHO-K1 cells stably expressing recombinant human 5-HT2A receptor. Membranes were prepared from HEK 293 cell lines by the method described by Monsma et al., Molecular Pharmacology, Vol. 43 pp. 320-327 (1993), and from CHO-K1 cell lines as described by Bonhaus et al., Br J Pharmacol. June; 115(4):622-8 (1995).
For estimation of affinity at the 5-HT6 receptor, all determinations were made in assay buffer containing 50 mM Tris-HCl, 10 mM MgSO4, 0.5 mM EDTA, 1 mM ascorbic acid, pH 7.4 at 37° C., in a 250 microliter reaction volume. […]
Assay tubes containing [^3H] […] LSD or [^3H]Ketanserin were determined as radioactive counts per minute using Packard TopCount.
Displacement of [^3H]LSD or [^3H]Ketanserin from the binding sites was quantified by fitting concentration-binding data to a 4-parameter logistic equation: […]
With `CNCC1CCCc2cc(NS(=O)(=O)c3ccccc3)ccc21` (stereo not shown) [N-(5-Methylaminomethyl-5,6,7,8-tetrahydro-naphthalen-2-yl)-benzenesulfonamide], the Ki is roughly 0.138 nM.

Test system in another data set: not given
Test: not given
Conditions: not given
For `CNCC1CCCc2cc(NS(=O)(=O)c3cccc(F)c3)ccc21` (stereo not shown) (as salt: oxalate) [Compound 5, 3-Fluoro-N-(5-methylaminomethyl-5,6,7,8-tetrahydro-naphthalen-2-yl)-benzenesulfonamide], the melting point (usually the temperature of the solid-liquid transition) lay within 135 to 136 °C. Consider `CN(c1ccc2c(c1)CCCC2CN)S(=O)(=O)c1cccc(F)c1` (stereo not shown) (as salt: oxalate) [Compound 9, N-(5-Aminomethyl-5,6,7,8-tetrahydro-naphthalen-2-yl)-3-fluoro-N-methyl-benzenesulfonamide], for which the melting point lay within 176 to 177 °C.

For `NCC1CCCc2cc(NS(=O)(=O)c3ccccc3)ccc21` (stereo not shown) [Compound 2, N-(5-Aminomethyl-5,6,7,8-tetrahydro-naphthalen-2-yl)-benzenesulfonamide], the melting point lay within 164 to 165 °C. Regarding `NC(=O)NCC1CCCc2cc(NS(=O)(=O)c3cccc(F)c3)ccc21` (stereo not shown) [Compound 6, 3-Fluoro-N-(5-ureidomethyl-5,6,7,8-tetrahydro-naphthalen-2-yl)-benzenesulfonamide], the melting point lay in the range of 162 to 163 °C. As for `O=CNCC1CCCc2cc(NS(=O)(=O)c3cccc(F)c3)ccc21` (stereo not shown) [Compound 7, 3-Fluoro-N-(5-formylaminomethyl-5,6,7,8-tetrahydro-naphthalen-2-yl)-benzenesulfonamide], the melting point is 143 to 144 °C.

As to `CC(=O)NCC1CCCc2cc(NS(=O)(=O)c3cccc(F)c3)ccc21` (stereo not shown) [Compound 8, N-[6-(3-Fluoro-benzenesulfonylamino)-1,2,3,4-tetrahydro-naphthalen-1-ylmethyl]-acetamide], the melting point was 136 to 137 °C.

Source of the values: patent publication US7531577B2, “Arylsulfonamidyl tetralin derivatives and uses thereof” (Roche Palo Alto LLC, priority 2006, dated 2009).
